What was measured:
[1] = system: U2OS cells; experiment: cytotoxicity, CellTiter-Glo Luminescent Cell Viability Assay; conditions: for cytotoxicity profile (normalized cell viability): 250 nM to 50 µM, 36 h (Figure 7)
[2] = system: HAd-C5-wt virus; experiment: adenoviral early gene expression by real-time PCR; format: cell-based, adenovirus; conditions: U2OS cells, 5 µM, 4 hours post-infection, vs vehicle
[3] = system: MARV VP40 with the late domain motif of Ebola virus (PTAPPEY) VP40 (VP40ELD); format: cell-based, Marburg virus
[4] = system: MARV
[5] = system: GFP expressing HAd-C5 vector; experiment: fluorescent plaque forming assay (adenoviral propagation / virus spread); format: cell-based, adenovirus
[6] = system: HAd-C5; experiment: adenovirus genome nuclear import (nuclear protein VII staining, confocal microscopy); format: cell-based; conditions: U2OS cells, 5 µM, 2500 pp/cell, 2 hours post-infection, vs DMSO

With Clc1ccc(CO/N=C(\Cn2ccnc2)c2ccc(Cl)cc2Cl)c(Cl)c1 [Oxiconazole] the “cytotoxicity profile (normalized cell viability)” value [1] was “cytotoxicity profiles similar to Sulconazole”.
For Clc1ccc(-c2ccc(Cn3ccnc3)c(-c3ccc(Cl)cc3Cl)c2)c(Cl)c1 [CT2-10, 1-((2,2",4,4"-Tetrachloro-[1,1':3',1"-terphenyl]-4'-yl)methyl)-1H-imidazole], the “cytotoxicity profile (normalized cell viability)” value [1] was “cytotoxicity profiles similar to Sulconazole”.
With Clc1ccc(CSC(Cn2ccnc2)c2ccc(Cl)cc2Cl)cc1 (stereo not shown) [Sulconazole] the “early viral genes expression (E1A, E1B, E4 orf6/7)” value [2] was “significant reduction of early viral genes expression”, the “VP40 VLP release” value [3] was “inhibit” and the “reduction of MARV titers (TCID50)” value [4] was 1-2 log. For the same compound, the “plaque size (adenovirus virus propagation)” value ([5]; 5 µM, HEK293 cells, 0.1 pp/cell HAd-C5-GFP, six days after infection, vs DMSO (Example 3, Figure 1, P<0.0001)) was “significant reduced plaque size”, the cytotoxicity ([1]; 5 µM, 36 h) was “not cytotoxic” and the “nuclear accumulation of viral genomes (protein VII)” value [6] was “significantly reduces the nuclear accumulation of viral genomes”.
Nc1ccn(C[C@@H](CO)OCP(=O)(O)O)c(=O)n1 [Cidofovir] was tested, and the “inhibition of adenoviral propagation (plaque size)” value ([5]; 10 µM and 20 µM (Example 8, Figure 6)) was “did not show significant inhibition”.
Clc1ccc(-c2cc(-n3ccnc3)c(-c3ccc(Cl)cc3Cl)o2)c(Cl)c1 [CT2-13, 1-(2,5-bis(2,4-Dichlorophenyl)furan-3-yl)-1H-imidazole] was tested, and the “cytotoxicity profile (normalized cell viability)” value [1] was “cytotoxicity profiles similar to Sulconazole”.

From patent EP3381905A1, “NOVEL ANTIVIRAL COMPOUNDS” (priority 2017, dated 2018)
